{
  "source": "paper PMC6680840",
  "about": "(Molecules, 2019)",
  "key": {"[1]": {"target": "T1, BChE (EC 3.1.1.8, from human serum) (Homo sapiens, UniProt P06276)", "T1 construct": "BChE (EC 3.1.1.8, from human serum); purchased Sigma-Aldrich (St. Louis, MO, USA); host or cells: human serum", "T1 sequence (P06276 29-602)": "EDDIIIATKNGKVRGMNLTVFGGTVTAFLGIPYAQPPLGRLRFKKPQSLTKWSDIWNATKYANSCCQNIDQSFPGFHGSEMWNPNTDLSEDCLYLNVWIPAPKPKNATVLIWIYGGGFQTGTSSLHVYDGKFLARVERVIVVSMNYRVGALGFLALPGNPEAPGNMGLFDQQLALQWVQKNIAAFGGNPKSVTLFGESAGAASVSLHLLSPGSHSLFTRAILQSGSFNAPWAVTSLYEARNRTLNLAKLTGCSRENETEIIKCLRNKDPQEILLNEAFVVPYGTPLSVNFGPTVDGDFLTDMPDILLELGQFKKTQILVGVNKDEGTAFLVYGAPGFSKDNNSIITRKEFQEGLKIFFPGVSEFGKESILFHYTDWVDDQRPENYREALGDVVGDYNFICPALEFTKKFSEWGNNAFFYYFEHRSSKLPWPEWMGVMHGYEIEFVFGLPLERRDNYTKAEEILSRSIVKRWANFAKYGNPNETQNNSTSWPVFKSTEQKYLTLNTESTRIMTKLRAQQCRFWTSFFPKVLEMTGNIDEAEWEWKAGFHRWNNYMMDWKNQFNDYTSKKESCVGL", "assay": "biochemical", "conditions": "for BChE IR (%) inhibition ratio: at 50 μM; for IC50: mean ± SD of three separate experiments", "method": "(§1) BChE (EC 3.1.1.8, from human serum), AChE (EC […]), butyrylthiocholine (BUC) iodide, and acetylthiocholine (ATC) iodide were purchased from Sigma-Aldrich (St. Louis, MO, USA). Enzyme was dissolved and pre-prepared at 2.0 U/mL. 10 μL of enzyme, 20 μL of 0.01 M 5,5′-dithiobis(2-nitrobenzoic acid), 10 μL of tested compound, and 40 μL of PBS were pre-incubated together for 5 min. Io initiate the reaction, 20 μL of 0.01 M BUC or ATC was added. The activity was determined by measuring the increase in absorbance at 410 nm at 37 °C in 2 min intervals using Tecan Spark multimode microplate reader (Mannedorf, Switzerland). The percentage of inhibition (I) was calculated according to the formula: I = (Ac − Ai)/Ac × 100%, with Ai and Ac representing the change in the absorbance in the presence of an inhibitor and without an inhibitor, respectively."}, "[2]": {"target": "T2, AChE (from human erythrocyte) (Homo sapiens, UniProt P22303)", "T2 construct": "AChE (EC 3.1.1.8, from human erythrocyte); purchased Sigma-Aldrich (St. Louis, MO, USA); host or cells: human erythrocyte", "T2 sequence (P22303 other isoform, or with tags, fused parts or gaps)": "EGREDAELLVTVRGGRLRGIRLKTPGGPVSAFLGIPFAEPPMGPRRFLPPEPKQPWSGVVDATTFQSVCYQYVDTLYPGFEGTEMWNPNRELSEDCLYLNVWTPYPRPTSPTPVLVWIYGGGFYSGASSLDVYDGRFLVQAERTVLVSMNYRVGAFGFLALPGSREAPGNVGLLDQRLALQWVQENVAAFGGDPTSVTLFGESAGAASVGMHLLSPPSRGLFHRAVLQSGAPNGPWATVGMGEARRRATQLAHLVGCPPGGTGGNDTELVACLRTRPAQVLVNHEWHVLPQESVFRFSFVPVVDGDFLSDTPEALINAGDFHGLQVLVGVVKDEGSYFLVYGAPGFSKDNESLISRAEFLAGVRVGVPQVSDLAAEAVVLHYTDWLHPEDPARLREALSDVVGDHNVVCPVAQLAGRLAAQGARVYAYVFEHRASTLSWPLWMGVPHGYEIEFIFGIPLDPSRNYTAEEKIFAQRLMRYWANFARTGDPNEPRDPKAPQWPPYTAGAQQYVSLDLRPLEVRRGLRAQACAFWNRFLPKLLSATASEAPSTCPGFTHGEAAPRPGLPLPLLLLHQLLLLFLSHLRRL", "assay": "biochemical", "conditions": "for AChE IR (%) inhibition ratio: at 50 μM; for IC50: mean ± SD of three separate experiments", "method": "as §1"}},
  "data": [
    {"smiles": "CCN(CC)CCNC(=O)c1ccc(CN2CCc3ccccc3C2)cc1", "note": "[Compound 1, N-(2-(diethylamino)ethyl)-4-((3,4-dihydroisoquinolin-2(1H)-yl)methyl)benzamide]", "values": [
      {"measurement": "BChE IR (%) inhibition ratio", "setting": "[1]", "result": 68.4, "unit": "%"},
      {"measurement": "IC50", "setting": "[1]", "result": 17.9, "unit": "µM"},
      {"measurement": "AChE IR (%) inhibition ratio", "setting": "[2]", "result": 26.6, "unit": "%"},
      {"measurement": "IC50", "setting": "[2]", "result": "> 50", "unit": "µM"}
    ]},
    {"smiles": "CC(C)N(CCNC(=O)c1ccc(CN2CCc3ccccc3C2)cc1)C(C)C", "note": "[Compound 2, 4-((3,4-dihydroisoquinolin-2(1H)-yl)methyl)-N-(2-(diisopropylamino)ethyl)benzamide]", "values": [
      {"measurement": "BChE IR (%) inhibition ratio", "setting": "[1]", "result": 76.4, "unit": "%"},
      {"measurement": "IC50", "setting": "[1]", "result": "9.98 ± 0.89", "unit": "µM"},
      {"measurement": "AChE IR (%) inhibition ratio", "setting": "[2]", "result": 56.1, "unit": "%"},
      {"measurement": "IC50", "setting": "[2]", "result": "21.5 ± 0.98", "unit": "µM"}
    ]},
    {"smiles": "CN(C)CCNC(=O)c1ccc(CN2CCc3ccccc3C2)cc1", "note": "[Compound 3, 4-((3,4-dihydroisoquinolin-2(1H)-yl)methyl)-N-(2-(dimethylamino)ethyl)benzamide]", "values": [
      {"measurement": "BChE IR (%) inhibition ratio", "setting": "[1]", "result": 36.9, "unit": "%"},
      {"measurement": "AChE IR (%) inhibition ratio", "setting": "[2]", "result": 11.4, "unit": "%"}
    ]},
    {"smiles": "CCNCCNC(=O)c1ccc(CN2CCc3ccccc3C2)cc1", "note": "[Compound 4, 4-((3,4-dihydroisoquinolin-2(1H)-yl)methyl)-N-(2-(ethylamino)ethyl)benzamide]", "values": [
      {"measurement": "BChE IR (%) inhibition ratio", "setting": "[1]", "result": 27.2, "unit": "%"},
      {"measurement": "AChE IR (%) inhibition ratio", "setting": "[2]", "result": 8.8, "unit": "%"}
    ]},
    {"smiles": "COC(CNC(=O)c1ccc(CN2CCc3ccccc3C2)cc1)OC", "note": "[Compound 5, 4-((3,4-dihydroisoquinolin-2(1H)-yl)methyl)-N-(2,2-dimethoxyethyl)benzamide]", "values": [
      {"measurement": "BChE IR (%) inhibition ratio", "setting": "[1]", "result": 56.6, "unit": "%"},
      {"measurement": "IC50", "setting": "[1]", "result": "38.1 ± 1.68", "unit": "µM"},
      {"measurement": "AChE IR (%) inhibition ratio", "setting": "[2]", "result": 2.7, "unit": "%"}
    ]},
    {"smiles": "O=C(NCCN1CCOCC1)c1ccc(CN2CCc3ccccc3C2)cc1", "note": "[Compound 6, 4-((3,4-dihydroisoquinolin-2(1H)-yl)methyl)-N-(2-morpholinoethyl)benzamide]", "values": [
      {"measurement": "BChE IR (%) inhibition ratio", "setting": "[1]", "result": 19.1, "unit": "%"},
      {"measurement": "AChE IR (%) inhibition ratio", "setting": "[2]", "result": 13.4, "unit": "%"}
    ]},
    {"smiles": "O=C(NCCN1CCCC1)c1ccc(CN2CCc3ccccc3C2)cc1", "note": "[Compound 7, 4-((3,4-dihydroisoquinolin-2(1H)-yl)methyl)-N-(2-(pyrrolidin-1-yl)ethyl)benzamide]", "values": [
      {"measurement": "IC50", "setting": "[1]", "result": "15.2 ± 2.33", "unit": "µM"},
      {"measurement": "AChE IR (%) inhibition ratio", "setting": "[2]", "result": 4.4, "unit": "%"}
    ]},
    {"smiles": "CCN1CCCC1CNC(=O)c1ccc(CN2CCc3ccccc3C2)cc1", "note": "(stereo not drawn) [Compound 8, 4-((3,4-dihydroisoquinolin-2(1H)-yl)methyl)-N-((1-ethylpyrrolidin-2-yl)methyl)benzamide]", "values": [
      {"measurement": "BChE IR (%) inhibition ratio", "setting": "[1]", "result": 63.0, "unit": "%"},
      {"measurement": "IC50", "setting": "[1]", "result": "25 ± 1.27", "unit": "µM"},
      {"measurement": "AChE IR (%) inhibition ratio", "setting": "[2]", "result": 13.3, "unit": "%"}
    ]},
    {"smiles": "O=C(c1ccc(CN2CCc3ccccc3C2)cc1)N1CCOCC1", "note": "[Compound 10, (4-((3,4-dihydroisoquinolin-2(1H)-yl)methyl)phenyl)(morpholino)methanone]", "values": [
      {"measurement": "BChE IR (%) inhibition ratio", "setting": "[1]", "result": 11.2, "unit": "%"},
      {"measurement": "AChE IR (%) inhibition ratio", "setting": "[2]", "result": 3.4, "unit": "%"}
    ]},
    {"smiles": "O=C(c1ccc(CN2CCc3cc(Br)ccc3C2)cc1)N1CCCC1", "note": "[Compound 11, (4-((6-bromo-3,4-dihydroisoquinolin-2(1H)-yl)methyl)phenyl)(pyrrolidin-1-yl)methanone]", "values": [
      {"measurement": "IC50", "setting": "[1]", "result": "8.38 ± 0.65", "unit": "µM"},
      {"measurement": "IC50", "setting": "[2]", "result": "30.6 ± 1.82", "unit": "µM"}
    ]},
    {"smiles": "O=C(c1ccc(CN2CCc3ccc(Br)cc3C2)cc1)N1CCCC1", "note": "[Compound 12, (4-((7-bromo-3,4-dihydroisoquinolin-2(1H)-yl)methyl)phenyl)(pyrrolidin-1-yl)methanone]", "values": [
      {"measurement": "IC50", "setting": "[1]", "result": "39.4 ± 2.25", "unit": "µM"},
      {"measurement": "IC50", "setting": "[2]", "result": "> 50", "unit": "µM"}
    ]},
    {"smiles": "COc1ccc2c(c1)CCN(Cc1ccc(C(=O)N3CCCC3)cc1)C2", "note": "[Compound 13, (4-((6-methoxy-3,4-dihydroisoquinolin-2(1H)-yl)methyl)phenyl)(pyrrolidin-1-yl)methanone]", "values": [
      {"measurement": "IC50", "setting": "[1]", "result": "12.6 ± 0.88", "unit": "µM"},
      {"measurement": "IC50", "setting": "[2]", "result": "12.1 ± 0.9", "unit": "µM"}
    ]},
    {"smiles": "COc1cc2c(cc1OC)CN(Cc1ccc(C(=O)N3CCCC3)cc1)CC2", "note": "[Compound 14, (4-((6,7-dimethoxy-3,4-dihydroisoquinolin-2(1H)-yl)methyl)phenyl)(pyrrolidin-1-yl)methanone]", "values": [
      {"measurement": "IC50", "setting": "[2]", "result": "18.2 ± 0.86", "unit": "µM"}
    ]},
    {"smiles": "O=C(Nc1ccccc1)c1ccc(CN2CCc3ccccc3C2)cc1", "note": "[Compound 15, 4-((3,4-dihydroisoquinolin-2(1H)-yl)methyl)-N-phenylbenzamide]", "values": [
      {"measurement": "BChE IR (%) inhibition ratio", "setting": "[1]", "result": 23.7, "unit": "%"},
      {"measurement": "AChE IR (%) inhibition ratio", "setting": "[2]", "result": 8, "unit": "%"}
    ]}
  ]
}
